In patent US20250283873A1, “NERVOUS SYSTEM CELL-CONTAINING SPHEROID, METHOD FOR PRODUCING NERVOUS SYSTEM CELL-CONTAINING SPHEROID, AND METHOD FOR EVALUATING TEST SUBSTANCE” (Ricoh Company, Ltd., priority 2024, published 2025):

How the values were obtained:
[1] = tested on: 3D spheroid-cultured nerve cells (human iPSC-derived nerve cells and human-derived primary cultured astrocytes); assay: Calcium assay in 3D spheroid-cultured nerve cells (number of calcium spikes); format: cell-based; details: for relative value (log 2) of a change in number of the calcium spikes (DMSO = 0) / relative value of the number of the calcium spikes (DMSO set to 100%): cultured 5 weeks; for relative value (log 2) of a change in number of the calcium spikes (DMSO = 0): Experimental Examples 4-9, FIG. 4-9
Description: Human iPSC-derived nerve cells (Excitatory Neurons, Elixirgen Scientific, Inc.) and human-derived primary cultured astrocytes (ScienCell Research Laboratories, Inc.) were mixed so that the number of cells per well was 8,000 for the nerve cells and 8,000 for the astrocytes, and seeded on a plate for producing a spheroid. As the culture medium, Neurobasal Plus (Thermo Fisher Scientific, Inc.) to which B-27 Plus Supplement (Thermo Fisher Scientific, Inc.), Glutamax (Thermo Fisher Scientific, Inc.), 200 μM ascorbic acid (FUJIFILM Wako Pure Chemical Corporation), and a 10% Neuron Culture medium (FUJIFILM Wako Pure Chemical Corporation) had been added was used. Subsequently, the cells were cultured for 6 weeks and a calcium assay which will be described later was performed.
In the case of the 3D spheroid-cultured nerve cells, each spheroid was transferred to a plate for measurement, a calcium-sensitive fluorescent dye (Cal-520AM, (AAT Bioquest, Inc.)), Pluronic F-127 (AAT Bioquest, Inc.), and the drug were added to the culture medium, and the fluorescence was measured at intervals of 0.5 seconds for 20 minutes using a fluorescence plate reader to measure the calcium spikes.
By setting the proportion of the change in number of the calcium spikes in a case where dimethyl sulfoxide (DMSO) used as a solvent for the drug was added to 0%, in a case where the number of the calcium spikes increased due to the addition of the drug, the value is shown to be positive, and in a case where the number of the calcium spikes decreased due to the addition of the drug, the value is shown to be negative.
A calcium assay was performed in the presence of a drug, using spheroids with different numbers of cells, and the drug responsiveness of the nerve cells was examined. Human iPSC-derived nerve cells (Excitatory Neurons, Elixirgen Scientific, Inc.) and human-derived primary cultured astrocytes (ScienCell Research Laboratories, Inc.) were mixed so that the number of cells per well was 8,000 for the nerve cells and 8,000 for the astrocytes, 4,000 for the nerve cells and 4,000 for the astrocytes, or 2,000 for the nerve cells and 2,000 for the astrocytes, and seeded on a plate for producing a spheroid. As the culture medium, Neurobasal Plus (Thermo Fisher Scientific, Inc.) to which B-27 Plus Supplement (Thermo Fisher Scientific, Inc.), Glutamax (Thermo Fisher Scientific, Inc.), 200 μM ascorbic acid (FUJIFILM Wako Pure Chemical Corporation), and a 10% Neuron Culture medium (FUJIFILM Wako Pure Chemical Corporation) had been added was used. Subsequently, the cells were cultured for 5 weeks, and a calcium assay was performed in the same manner as in Experimental Example 1. Chlorpromazine was used as the drug.
The values in the graph indicate the mean value±the standard deviation. The horizontal axis of the graph indicates the concentration of chlorpromazine in the culture medium, and the vertical axis of the graph indicates a relative value of the number of the calcium spikes in a case where dimethyl sulfoxide (DMSO) used as a solvent for the drug was added, with the number of the calcium spikes set to 100%. […] 0% indicates a state in which the calcium spikes completely disappear.
A calcium assay was performed in the same manner as in Experimental Example 2, except that the drug was changed to GABA and the number of cells constituting the spheroid was changed to 16,000 or 4,000, and the drug responsiveness of the nerve cells was examined.

[2] = tested on: 2D-cultured nerve cells (human iPSC-derived nerve cells and human-derived primary cultured astrocytes); assay: Calcium assay in 2D-cultured nerve cells (number of calcium spikes); format: cell-based; details: cultured 6 weeks, Experimental Example 1, FIG. 1
Method: Human iPSC-derived nerve cells (Excitatory Neurons, Elixirgen Scientific, Inc.) and human-derived primary cultured astrocytes (ScienCell Research Laboratories, Inc.) were seeded in a 384-well plate so that the number of cells per well was 10,000 for the nerve cells and 2,500 for the astrocytes. As the culture medium, Neurobasal Plus (Thermo Fisher Scientific, Inc.) to which B-27 Plus Supplement (Thermo Fisher Scientific, Inc.), Glutamax (Thermo Fisher Scientific, Inc.), 200 µM ascorbic acid (FUJIFILM Wako Pure Chemical Corporation), and a 10% Neuron Culture medium (FUJIFILM Wako Pure Chemical Corporation) had been added was used. Subsequently, the cells were cultured for 6 weeks and a calcium assay which will be described later was performed.
A calcium assay was performed in the presence of a drug to examine the drug responsiveness of the 2D-cultured nerve cells and the 3D spheroid-cultured nerve cells. Chlorpromazine was used as the drug.
In the case of the 2D-cultured nerve cells, a calcium-sensitive fluorescent dye (Cal-520AM, AAT Bioquest, Inc.) and a drug were added to the culture medium, and the fluorescence was measured at intervals of 0.5 seconds for 20 minutes using a fluorescence plate reader to measure the calcium spikes.
FIG. 1 is a graph showing the measurement results. The values in the graph indicate the mean value±the standard deviation. […]

[3] = spheroid of 4,000 cells, compared with 16,000 cells
[4] = spheroid of 4,000 cells, Experimental Examples 2-3, FIG. 2-3, chlorpromazine at 1 μM and 3 μM
[5] = spheroid of 8,000 cells, Experimental Examples 2-3, FIG. 2-3, chlorpromazine at 1 μM and 3 μM
[6] = spheroid of 16,000 cells, Experimental Examples 2-3, FIG. 2-3, chlorpromazine at 1 μM and 3 μM

Structure (SMILES) | relative value (log 2) of a change in number of the calcium spikes (DMSO = 0) [1, 3] | relative value of the number of the calcium spikes (DMSO set to 100%) [1, 4] | relative value of the number of the calcium spikes (DMSO set to 100%) [1, 5] | relative value of the number of the calcium spikes (DMSO set to 100%) [1, 6] | also measured
NC(=O)N1c2ccccc2C=Cc2ccccc21 [carbamazepine] | the action was exhibited at a lower concentration and a stronger action was exhibited at 4,000 cells in a concentration-dependent manner | – | – | – | –
CN1CCc2cc3c(cc2[C@H]1[C@@H]1OC(=O)c2c1ccc1c2OCO1)OCO3 [bicuculine] | drug responsiveness was exhibited in a concentration-dependent manner | an increase in the number of the calcium spikes was observed in a concentration-dependent manner | a significant response was not observed | an increase in the number of the calcium spikes was not observed at any concentration | relative value of the number of the calcium spikes (DMSO set to 100%) ([1]; spheroid of 8,000 cells, drug at 30 μM, Experimental Example 3, FIG. 3): a tendency of an increase in the number of the calcium spikes was observed; relative value (log 2) of a change in number of the calcium spikes (DMSO = 0) ([1]; spheroid of 16,000 cells): no drug response was observed
CN(C)CCCN1c2ccccc2Sc2ccc(Cl)cc21 [chlorpromazine, Chlorpromazine] | the action was exhibited at a lower concentration and a stronger action was exhibited at 4,000 cells in a concentration-dependent manner | showed a concentration-dependent response | did not show a concentration-dependent response | did not show a concentration-dependent response | change in number of the calcium spikes (vs DMSO) ([1]; 3D spheroid, 8,000 nerve cells + 8,000 astrocytes, cultured 6 weeks, Experimental Example 1, FIG. 1): no change in number of the calcium spikes was observed at any drug concentration; number of the calcium spikes (proportion of change vs DMSO) ([2]; 2D culture, 10,000 nerve cells and 2,500 astrocytes per well): the number of the calcium spikes decreased in a drug concentration-dependent manner; concentration at which the calcium spikes disappeared ([2]; 2D culture): 3 µM
NCCCC(=O)O [GABA, γ-aminobutyric acid] | the action was exhibited at a lower concentration and a stronger action was exhibited at 4,000 cells in a concentration-dependent manner | – | – | – | –
N#Cc1cc2c(cc1[N+](=O)[O-])=NC(=O)C(=O)N=2 [CNQX, 6-cyano-7-nitroquinoxaline-2,3-dione] | the action was exhibited at a lower concentration and a stronger action was exhibited at 4,000 cells in a concentration-dependent manner | – | – | – | –
NCCc1ccc(O)c(O)c1 [dopamine] | the action was exhibited at a lower concentration and a stronger action was exhibited at 4,000 cells in a concentration-dependent manner | – | – | – | –
